Reference: ChEMBL document CHEMBL3822390, “Synthesis, characterization and anti-cancer activity of a peptide nucleolipid bioconjugate” (2016)

What was measured:
Format in all cases: functional
[1] = Cytotoxicity against human MOLT4 cells assessed as cell growth at 10 uM after 48 hrs by SRB assay; conditions: MOLT-4, 48 h, read-out: Activity
[2] = Cytotoxicity against human Hs 578T cells assessed as cell growth at 10 uM after 48 hrs by SRB assay; conditions: read-out: Activity
[3] = test system: SK-MEL-2; test: Cytotoxicity against human SK-MEL-2 cells assessed as cell growth at 10 uM after 48 hrs by SRB assay; conditions: SK-MEL-2, 48 h, read-out: Activity
[4] = Cytotoxicity against human SF268 cells assessed as cell growth at 10 uM after 48 hrs by SRB assay; conditions: SF-268, 48 h, read-out: Activity
[5] = test system: SK-MEL-28; test: Cytotoxicity against human SK-MEL-28 cells assessed as cell growth at 10 uM after 48 hrs by SRB assay; conditions: SK-MEL-28, 48 h, read-out: Activity
[6] = test system: NCI-H522; test: Cytotoxicity against human NCI-H522 cells assessed as cell growth at 10 uM after 48 hrs by SRB assay; conditions: NCI-H522, 48 h, read-out: Activity
[7] = test system: NCI-H522; test: Cytotoxicity against human NCI-H522 cells assessed as cell mortality at 10 uM after 48 hrs by SRB assay; conditions: NCI-H522, 48 h
[8] = Cytotoxicity against human HCT15 cells assessed as cell growth at 10 uM after 48 hrs by SRB assay; conditions: HCT-15, 48 h, read-out: Activity
[9] = test system: A498; test: Cytotoxicity against human A498 cells assessed as cell growth at 10 uM after 48 hrs by SRB assay; conditions: A498, 48 h, read-out: Activity
[10] = test system: MCF7; test: Cytotoxicity against human MCF7 cells assessed as cell growth at 10 uM after 48 hrs by SRB assay; conditions: MCF7, 48 h, read-out: Activity
[11] = Cytotoxicity against human DU145 cells assessed as cell growth at 10 uM after 48 hrs by SRB assay; conditions: DU-145, 48 h, read-out: Activity
[12] = Cytotoxicity against human Caki1 cells assessed as cell growth at 10 uM after 48 hrs by SRB assay; conditions: CAKI-1, 48 h, read-out: Activity
[13] = test system: T47D; test: Cytotoxicity against human T47D cells assessed as cell growth at 10 uM after 48 hrs by SRB assay; conditions: read-out: Activity
[14] = Cytotoxicity against human SF539 cells assessed as cell growth at 10 uM after 48 hrs by SRB assay; conditions: SF-539, 48 h, read-out: Activity
[15] = Cytotoxicity against human SNB19 cells assessed as cell growth at 10 uM after 48 hrs by SRB assay; conditions: SNB-19, 48 h, read-out: Activity
[16] = test system: HT-29; test: Cytotoxicity against human HT-29 cells assessed as cell growth at 7.25 uM after 48 hrs by SRB assay; conditions: HT-29, 48 h, read-out: Activity
[17] = test system: 786-0; test: Cytotoxicity against human 786-0 cells assessed as cell growth at 7.25 uM after 48 hrs by SRB assay; conditions: 786-0, 48 h, read-out: Activity
[18] = Cytotoxicity against human HCT116 cells assessed as cell growth at 7.25 uM after 48 hrs by SRB assay; conditions: HCT-116, 48 h, read-out: Activity
[19] = Cytotoxicity against human IGROV1 cells assessed as cell growth at 7.25 uM after 48 hrs by SRB assay; conditions: IGROV-1, 48 h, read-out: Activity
[20] = test system: NCI-H23; test: Cytotoxicity against human NCI-H23 cells assessed as cell growth at 7.25 uM after 48 hrs by SRB assay; conditions: NCI-H23, 48 h, read-out: Activity
[21] = test system: A549; test: Cytotoxicity against human A549 cells assessed as cell mortality at 7.25 uM after 48 hrs by SRB assay; conditions: A549, 48 h
[22] = test system: SK-MEL-2; test: Cytotoxicity against human SK-MEL-2 cells assessed as cell growth at 7.25 uM after 48 hrs by SRB assay; conditions: SK-MEL-2, 48 h, read-out: Activity
[23] = Cytotoxicity against human BT549 cells assessed as cell growth at 7.25 uM after 48 hrs by SRB assay; conditions: BT-549, 48 h, read-out: Activity
[24] = test system: K562; test: Cytotoxicity against human K562 cells assessed as cell growth at 7.25 uM after 48 hrs by SRB assay; conditions: K562, 48 h, read-out: Activity
[25] = test system: M14; test: Cytotoxicity against human M14 cells assessed as cell growth at 7.25 uM after 48 hrs by SRB assay; conditions: M14, 48 h, read-out: Activity
[26] = Cytotoxicity against human HCC2998 cells assessed as cell growth at 7.25 uM after 48 hrs by SRB assay; conditions: HCC 2998, 48 h, read-out: Activity
[27] = Cytotoxicity against human HCT15 cells assessed as cell growth at 7.25 uM after 48 hrs by SRB assay; conditions: HCT-15, 48 h, read-out: Activity
[28] = Cytotoxicity against human OVCAR3 cells assessed as cell growth at 7.25 uM after 48 hrs by SRB assay; conditions: OVCAR-3, 48 h, read-out: Activity
[29] = Cytotoxicity against human SF268 cells assessed as cell growth at 7.25 uM after 48 hrs by SRB assay; conditions: SF-268, 48 h, read-out: Activity
[30] = Cytotoxicity against human SF295 cells assessed as cell growth at 2.13 uM after 48 hrs by SRB assay; conditions: SF-295, 48 h, read-out: Activity
[31] = Cytotoxicity against human SNB19 cells assessed as cell growth at 2.13 uM after 48 hrs by SRB assay; conditions: SNB-19, 48 h, read-out: Activity
[32] = test system: SK-MEL-28; test: Cytotoxicity against human SK-MEL-28 cells assessed as cell growth at 2.13 uM after 48 hrs by SRB assay; conditions: SK-MEL-28, 48 h, read-out: Activity
[33] = Cytotoxicity against human SNB75 cells assessed as cell growth at 2.13 uM after 48 hrs by SRB assay; conditions: SNB-75, 48 h, read-out: Activity
[34] = test system: A549; test: Cytotoxicity against human A549 cells assessed as cell growth at 2.13 uM after 48 hrs by SRB assay; conditions: A549, 48 h, read-out: Activity
[35] = test system: NCI-H23; test: Cytotoxicity against human NCI-H23 cells assessed as cell growth at 2.13 uM after 48 hrs by SRB assay; conditions: NCI-H23, 48 h, read-out: Activity
[36] = test system: U-251; test: Cytotoxicity against human U251 cells assessed as cell growth at 2.13 uM after 48 hrs by SRB assay; conditions: U-251, 48 h, read-out: Activity
[37] = test system: M14; test: Cytotoxicity against human M14 cells assessed as cell growth at 2.13 uM after 48 hrs by SRB assay; conditions: M14, 48 h, read-out: Activity
[38] = Cytotoxicity against human SKOV3 cells assessed as cell growth at 2.13 uM after 48 hrs by SRB assay; conditions: SK-OV-3, 48 h, read-out: Activity
[39] = Cytotoxicity against human HOP62 cells assessed as cell growth at 2.13 uM after 48 hrs by SRB assay; conditions: HOP-62, 48 h, read-out: Activity
[40] = Cytotoxicity against human SF539 cells assessed as cell growth at 2.13 uM after 48 hrs by SRB assay; conditions: SF-539, 48 h, read-out: Activity
[41] = Cytotoxicity against human IGROV1 cells assessed as cell growth at 2.13 uM after 48 hrs by SRB assay; conditions: IGROV-1, 48 h, read-out: Activity

CC(C)C[C@H](NC(=O)[C@H](CCCCN)NC(=O)[C@H](C)NC(=O)[C@H](CC(C)C)NC(=O)[C@H](CCCCN)NC(=O)[C@H](CCCCN)NC(=O)[C@H](C)NC(=O)[C@H](CC(C)C)NC(=O)[C@H](CCCCN)NC(=O)[C@H](C)NC(=O)[C@H](CC(C)C)NC(=O)[C@H](CCCCN)NC(=O)[C@@H](N)CC(=O)O)C(=O)N[C@@H](C)C(=O)N[C@@H](CCCCN)C(=O)N[C@@H](C)C(=O)N[C@@H](CCCCN)C(N)=O
growth at 10 µM [1]: 86.4%
growth at 10 µM [2]: 107%
growth at 10 µM [3]: 90.7%
growth at 10 µM [4]: 94.7%
growth at 10 µM [5]: 104%
growth at 10 µM [6]: 86.4%
mortality at 10 µM [7]: 14%
growth at 10 µM [8]: 108%
growth at 10 µM [9]: 115%
growth at 10 µM [10]: 96.7%
growth at 10 µM [11]: 109%
growth at 10 µM [12]: 99.4%
growth at 10 µM [13]: 113%
growth at 10 µM [14]: 98%
growth at 10 µM [15]: 106%

CCCCCCCCCCCCCCCC(=O)NCCCC[C@H](NC(=O)[C@H](C)NC(=O)[C@H](CCCCN)NC(=O)[C@H](C)NC(=O)[C@H](CC(C)C)NC(=O)[C@H](CCCCN)NC(=O)[C@H](C)NC(=O)[C@H](CC(C)C)NC(=O)[C@H](CCCCN)NC(=O)[C@H](CCCCN)NC(=O)[C@H](C)NC(=O)[C@H](CC(C)C)NC(=O)[C@H](CCCCN)NC(=O)[C@H](C)NC(=O)[C@H](CC(C)C)NC(=O)[C@H](CCCCN)NC(=O)[C@@H](N)CC(=O)O)C(N)=O
growth at 7.25 µM [16]: 92.4%
growth at 7.25 µM [17]: 107%
growth at 7.25 µM [18]: 92.3%
growth at 7.25 µM [19]: 108%
growth at 7.25 µM [20]: 104%
mortality at 7.25 µM [21]: 32%
growth at 7.25 µM [22]: 93.1%
growth at 7.25 µM [23]: 104%
growth at 7.25 µM [24]: 102%
growth at 7.25 µM [25]: 102%
growth at 7.25 µM [26]: 101%
growth at 7.25 µM [27]: 109%
growth at 7.25 µM [28]: 122%
growth at 7.25 µM [29]: 105%

CCCCCCCCCCCCCCCCNCCO[C@H]1C[C@H](n2cc(C)c(=O)[nH]c2=O)O[C@@H]1C(=O)NCCCC[C@H](NC(=O)[C@H](C)NC(=O)[C@H](CCCCN)NC(=O)[C@H](C)NC(=O)[C@H](CC(C)C)NC(=O)[C@H](CCCCN)NC(=O)[C@H](C)NC(=O)[C@H](CC(C)C)NC(=O)[C@H](CCCCN)NC(=O)[C@H](CCCCN)NC(=O)[C@H](C)NC(=O)[C@H](CC(C)C)NC(=O)[C@H](CCCCN)NC(=O)[C@H](C)NC(=O)[C@H](CC(C)C)NC(=O)[C@H](CCCCN)NC(=O)[C@@H](N)CC(=O)O)C(N)=O
growth at 2.13 µM [30]: 97.7%
growth at 2.13 µM [31]: 106%
growth at 2.13 µM [32]: 102%
growth at 2.13 µM [33]: 96.1%
growth at 2.13 µM [34]: 68.7%
growth at 2.13 µM [35]: 106%
growth at 2.13 µM [36]: 92.7%
growth at 2.13 µM [37]: 98.5%
growth at 2.13 µM [38]: 98.4%
growth at 2.13 µM [39]: 99.4%
growth at 2.13 µM [40]: 98.8%
growth at 2.13 µM [41]: 107%
